# Molecular target: T1, kinase domain protein of RC kinase (Homo sapiens, UniProt Q56UN5)
# T1 sequence (Q56UN5 1061-1324 limits assumed): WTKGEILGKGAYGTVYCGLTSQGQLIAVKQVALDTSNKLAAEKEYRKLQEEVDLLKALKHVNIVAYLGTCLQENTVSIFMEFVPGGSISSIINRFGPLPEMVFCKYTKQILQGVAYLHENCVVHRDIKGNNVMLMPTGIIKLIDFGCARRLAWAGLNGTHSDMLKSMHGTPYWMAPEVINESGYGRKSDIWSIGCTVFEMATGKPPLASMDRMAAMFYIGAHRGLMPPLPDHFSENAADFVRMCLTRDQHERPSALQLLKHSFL
# Experiment: Enzymatic assay for kinase inhibitory activity (Crebtide substrate, LANCE read-out)
# Assay type: biochemical
# Conditions: compound at 1 μM
# Description: Solutions of a test compound, Crebtide (a substrate), a kinase, and ATP were prepared using 1×MAPK Buffer (50 mM HEPES, 1 mM EGTA, […], 10 mM MgCl2, 2 mM DTT, and 0.01% Tween 20).
# To each well, the test compound (1 μL) was first added (in duplicate) to reach a final concentration of 1 μM or 1×IC50 of the compound. The kinase (5 μl) was then added to each well to reach a final concentration of […] for the kinase domain or […] for the full-length domain. Each plate included a positive and negative controls in duplicate wells. Crebtide (2.5 μL) was then added to each well in duplicate to reach a final concentration of 50 nM. If the full-length kinase was used, the plates were incubated for 45 min at room temperature before proceeding further. ATP (2.5 μL) was added to each well to reach a final concentration of 1 μM for the kinase domain and 3 μM for the full-length.
# After the addition of ATP, the plates were incubated for 45 min at room temperature. During the incubation, an EDTA solution (40 mM) and anti-Crebtide ([…]) were prepared. Additionally, a detection buffer stock solution was diluted ten fold before use.
# After the incubation, the anti-Crebtide (5 μL) and EDTA (5 μL) were added to each well to reach their final concentrations of […] and 10 mM, respectively. The plates were allowed to develop at room temperature for 45 min. The plates were then read at 665 nm and 615 nm using Perkin Elmer Lance machine.
# The biological results of inhibition of the kinase domain protein of RC kinase are summarized in Tables 2 and 3, wherein A represents at least 50% inhibition of the RC kinase activity at 1 μM; B represents no greater than 50% but at least 20% inhibition of the RC kinase activity at 1 μM; C represents no greater than 20% but at least 5% inhibition of the RC kinase activity at 1 μM; and D represents no greater than 5% inhibition of the RC kinase activity at 1 μM.
inhibition at 1 µM,SMILES,Activity (inhibition of the RC kinase activity)
20 to 50%,N#Cc1c(Nc2cccc(Cl)c2)n[nH]c1/N=C/c1ccc(-c2ccccn2)s1 [Compound A2],–
–,COc1ccc(/C=N/c2[nH]nc(Nc3ccccc3)c2C#N)cc1 [Compound A6],B (no greater than 50% but at least 20% inhibition of the RC kinase activity at 1 μM)
–,COc1cc(/C=N/c2[nH]nc(Nc3cccc(Cl)c3)c2C#N)ccc1O [Compound A17],B (no greater than 50% but at least 20% inhibition of the RC kinase activity at 1 μM)
–,N#Cc1c(Nc2ccccc2)n[nH]c1/N=C/c1ccc(C(F)(F)F)cc1 [Compound A18],C (no greater than 20% but at least 5% inhibition of the RC kinase activity at 1 μM)
–,COc1cccc(/C=N/c2[nH]nc(Nc3cccc(Cl)c3)c2C#N)c1 [Compound A24],D (no greater than 5% inhibition of the RC kinase activity at 1 μM)
–,N#Cc1c(Nc2cccc(Cl)c2)n[nH]c1/N=C/c1ccc[nH]1 [Compound A27],C (no greater than 20% but at least 5% inhibition of the RC kinase activity at 1 μM)
5 to 20%,N#Cc1c(Nc2ccccc2)n[nH]c1/N=C/c1ccc[nH]1 [Compound A28],–
–,N#Cc1c(Nc2ccc(Cl)cc2)n[nH]c1/N=C/c1ccc[nH]1 [Compound A39],D (no greater than 5% inhibition of the RC kinase activity at 1 μM)
–,COc1ccc(Nc2n[nH]c(/N=C/c3ccc(Cl)cc3)c2C#N)cc1 [Compound A44],D (no greater than 5% inhibition of the RC kinase activity at 1 μM)
–,COc1ccc(Nc2n[nH]c(/N=C/c3ccccc3)c2C#N)cc1 [Compound A45],D (no greater than 5% inhibition of the RC kinase activity at 1 μM)
≤ 5%,"N#Cc1c(NC2CCCCC2)n[nH]c1/N=C/c1ccc(O)cc1 [Compound A49, 3-(cyclohexylamino)-5-((4-hydroxybenzylidene)amino)-1H-pyrazole-4-carbonitrile]",–
–,COc1ccc(/C=N/c2[nH]nc(NC3CCCCC3)c2C#N)cc1 [Compound A50],D (no greater than 5% inhibition of the RC kinase activity at 1 μM)
–,N#Cc1c(NC2CCCCC2)n[nH]c1/N=C/c1ccccc1 [Compound A51],D (no greater than 5% inhibition of the RC kinase activity at 1 μM)
5 to 20%,Cc1cc(C)cc(Nc2n[nH]c(/N=C/c3ccc(O)cc3)c2C#N)c1 [Compound A55],–
5 to 20%,N#Cc1c(Nc2cc(Cl)cc(Cl)c2)n[nH]c1/N=C/c1ccc(O)cc1 [Compound A56],–
5 to 20%,"CC(C)(C)c1ccc(Nc2[nH]nc(N=Cc3ccc(O)cc3)c2C#N)cc1 [Compound A57, 5-((4-(tert-butyl)phenyl)amino)-3-((4-hydroxybenzylidene)amino)-1H-pyrazole-4-carbonitrile]",–
≤ 5%,N#Cc1c(Nc2ccc(Cl)c(Cl)c2)n[nH]c1/N=C/c1ccc(O)cc1O [Compound A59],–
–,Cn1nc(C(F)(F)F)c(/C=N/c2[nH]nc(Nc3cccc(Cl)c3)c2C#N)c1Cl [Compound A69],C (no greater than 20% but at least 5% inhibition of the RC kinase activity at 1 μM)
–,N#Cc1c(Nc2cccc(Cl)c2)n[nH]c1/N=C/c1nc(-c2ccccc2)[nH]c1Cl [Compound A72],B (no greater than 50% but at least 20% inhibition of the RC kinase activity at 1 μM)
–,N#Cc1c(Nc2cccc(Cl)c2)n[nH]c1/N=C/c1ccc(-c2ccc(Cl)cc2)o1 [Compound A73],C (no greater than 20% but at least 5% inhibition of the RC kinase activity at 1 μM)
–,CN1CCN(c2ccc(/C=N/c3[nH]nc(Nc4cccc(Cl)c4)c3C#N)cc2)CC1 [Compound A74],C (no greater than 20% but at least 5% inhibition of the RC kinase activity at 1 μM)
–,Cn1c(Cl)c(/C=N/c2[nH]nc(Nc3cccc(Cl)c3)c2C#N)c2ccccc21 [Compound A78],C (no greater than 20% but at least 5% inhibition of the RC kinase activity at 1 μM)

inhibition at 1 µM,SMILES,Activity (inhibition of the RC kinase activity)
–,COc1cc(/C=N/c2[nH]nc(Nc3cccc(Cl)c3)c2C#N)cc(O)c1OC [Compound A85],C (no greater than 20% but at least 5% inhibition of the RC kinase activity at 1 μM)
–,COc1ccc(/C=N/c2[nH]nc(Nc3cccc(Cl)c3)c2C#N)c(C)c1C [Compound A89],C (no greater than 20% but at least 5% inhibition of the RC kinase activity at 1 μM)
–,N#Cc1c(Nc2cccc(Cl)c2)n[nH]c1/N=C/c1c(O)cccc1Cl [Compound A92],D (no greater than 5% inhibition of the RC kinase activity at 1 μM)
–,Cc1ncsc1/C=N/c1[nH]nc(Nc2cccc(Cl)c2)c1C#N [Compound A104],D (no greater than 5% inhibition of the RC kinase activity at 1 μM)
–,N#Cc1c(Nc2cccc(Cl)c2)n[nH]c1/N=C/c1cccs1 [Compound A105],D (no greater than 5% inhibition of the RC kinase activity at 1 μM)
–,NC(=O)c1c(Nc2ccccc2)n[nH]c1/N=C/c1ccc(O)cc1 [Compound B10],A (at least 50% inhibition of the RC kinase activity at 1 μM)
–,NC(=O)c1c(Nc2ccccc2)n[nH]c1/N=C/c1ccccc1 [Compound B11],A (at least 50% inhibition of the RC kinase activity at 1 μM)
–,NC(=O)c1c(Nc2cccc(Cl)c2)n[nH]c1/N=C/c1ccc(C(F)(F)F)cc1 [Compound B16],D (no greater than 5% inhibition of the RC kinase activity at 1 μM)
–,NC(=O)c1c(Nc2cccc(Cl)c2)n[nH]c1/N=C/c1ccc[nH]1 [Compound B17],B (no greater than 50% but at least 20% inhibition of the RC kinase activity at 1 μM)
–,NC(=O)c1c(Nc2ccc(Cl)cc2)n[nH]c1/N=C/c1ccc(C(F)(F)F)cc1 [Compound B28],D (no greater than 5% inhibition of the RC kinase activity at 1 μM)
–,NC(=O)c1c(Nc2cccc(Cl)c2)n[nH]c1/N=C/c1cc(F)cc2c1OCOC2 [Compound B29],D (no greater than 5% inhibition of the RC kinase activity at 1 μM)
–,COc1cc(/C=N/c2[nH]nc(Nc3ccc(Cl)cc3)c2C(N)=O)ccc1O [Compound B32],A (at least 50% inhibition of the RC kinase activity at 1 μM)
≤ 5%,NC(=O)c1c(Nc2ccc(Cl)cc2)n[nH]c1/N=C/c1ccccc1OCC(=O)O [Compound B37],–
≥ 50%,"NC(=O)c1c(Nc2cccc(Cl)c2)n[nH]c1/N=C/c1cc(O)ccc1O [Compound B38, 3-((3-chlorophenyl)amino)-5-((2,5-dihydroxybenzylidene)amino)-1H-pyrazole-4-carboxamide]",–
5 to 20%,"NC(=O)c1c(Nc2ccc([N+](=O)[O-])cc2)n[nH]c1/N=C/c1ccccc1 [Compound B39, (E)-5-(benzylideneamino)-3-((4-nitrophenyl)amino)-1H-pyrazole-4-carboxamide]",–
20 to 50%,NC(=O)c1c(Nc2cccc(Cl)c2)n[nH]c1/N=C/c1ccc([N+](=O)[O-])c(O)c1 [Compound B45],–
–,COc1cccc(O)c1/C=N/c1[nH]nc(Nc2cccc(Cl)c2)c1C(N)=O [Compound B48],C (no greater than 20% but at least 5% inhibition of the RC kinase activity at 1 μM)
–,NC(=O)c1c(Nc2cccc(Cl)c2)n[nH]c1/N=C/c1cc([N+](=O)[O-])ccc1O [Compound B51],C (no greater than 20% but at least 5% inhibition of the RC kinase activity at 1 μM)
5 to 20%,COc1cc(/C=N/c2[nH]nc(Nc3cccc(Cl)c3)c2C(N)=O)ccc1OCc1cnc(Cl)s1 [Compound B55],–
–,COc1ccc(/C=N/c2[nH]nc(Nc3cccc(Cl)c3)c2C(N)=O)c(C)c1C [Compound B57],B (no greater than 50% but at least 20% inhibition of the RC kinase activity at 1 μM)
20 to 50%,COc1ccc(F)cc1/C=N/c1[nH]nc(Nc2cccc(Cl)c2)c1C(N)=O [Compound B58],–
≤ 5%,NC(=O)c1c(Nc2cccc(Cl)c2)n[nH]c1/N=C/c1ccc(Cl)nc1 [Compound B59],–

# Same assay, conditions: compound at 1 μM, 1 µM
row,SMILES,Activity (inhibition of the RC kinase activity)
1,N#Cc1c(Nc2cccc(Cl)c2)n[nH]c1/N=C/c1ccc(Oc2ncccn2)cc1 [Compound A77],D (no greater than 5% inhibition of the RC kinase activity at 1 μM)

# From patent publication US9365556B2, “3,5-diaminopyrazole kinase inhibitors” (Axikin Pharmaceuticals, Inc., priority 2012, dated 2016)
